Results from patent publication US6048856A, “Heterocyclic compounds” (Novo Nordisk A/S, priority 1997, dated 2000).
Counter-ions that a name gives are not always drawn.

Tested on: histamine induced paw oedema
Test: Histamine induced paw oedema test in rats
Assay type: in vivo, male Sprague-Dawley rats
Settings: Rattus norvegicus, ip; intraperitoneal, 15 minutes before anaesthetics; paw swelling 20 minutes after histamine 50 microliter
Protocol: Compounds of formula I may be used to treat all painful, hyperalgesic and/or inflammatory conditions in which C-fibres play a pathophysiological role by eliciting neurogenic pain or inflammation, i.e.:
I. Histamine Induced Paw Oedema
The rat histamine paw oedema test was performed essentially as described by Amann et al. (Europ. J. Pharmacol. 279, 227-231, 1995). In brief 250-300 g male Sprague-Dawley rats were anaesthetized with pentobarbital sodium, and placed on a 32 degree Celsius heated table. Ten minutes later histamine (50 micoliter, 3 mg/ml) was injected in the right hind paw and 20 minutes hereafter the paw swelling was determined by water plethysmography (Ugo Basile). Test compounds were administered intraperitoneally at 15 minutes before the anaesthetics.
Values for inhibition of histamine induced oedema response for some representative compounds are recorded in table 1.

N#CC(c1ccccc1)C1CCN(CCC=C2c3ccccc3CCc3ccccc32)CC1 (stereo not shown) [Example 5, 2-(1-(3-(10,11-Dihydro-5H-dibenzo[a,d]cyclohepten-5-ylidene)-1-propyl)-4-piperidyl)-2-phenylacetonitrile hydrochloride]
inhibition at 1 mg/kg: 30%
